Laboratory results reported in PMC7464788, “Modification and Targeted Design of N-Terminal Truncates Derived from Brevinin with Improved Therapeutic Efficacy” (Biology, 2020).
Converted amounts (≈) assume the structure as drawn. Positions of bridges follow the written chain, without caps; N, C: chain ends. Residues, ends and D or L forms follow the SMILES beside them.

Legend:
[1] = system: Candida albicans (NCYC1467); assay type: cell-based
Experimental: (§1) The antimicrobial assay was carried out to detect the minimum inhibitory concentration (MIC) and the minimum bactericidal concentration (MBC) of each peptide on the microbes as described previously. Seven different microorganisms were used in the assay: Gram-positive bacteria Staphylococcus aureus (NCTC10788), Enterococcus faecalis (NCTC12697), and methicillin-resistant S. aureus (MRSA) (NCTC12493); Gram-negative bacteria Escherichia coli (NCTC10418), Pseudomonas aeruginosa (ATCC27853), and Klebsiella pneumoniae (ATCC 43816); and fungi Candida albicans (NCYC1467). Bacterial strains were inoculated and grown to mid-log phase in fresh Mueller Hinton broth (MHB) at 37 °C for overnight, then bacteria inoculum suspensions were subcultured until reaching the logarithmic growth phase by measuring OD of the cultures at wavelength 550 nm. Then, 99 µL bacteria and 1 µL peptide solution were mixed in the 96-wells microplate. For positive and negative controls, the bacteria were incubated with antibiotics (Norfloxacin for Gram-positive bacteria and Gram-negative bacteria; Amphotericin B for fungi) solution and MHB medium, respectively. Experiments were repeated five times in five replicates.

[2] = system: Enterococcus faecalis (NCTC12697); assay type: cell-based
Experimental: as §1

[3] = system: Klebsiella pneumoniae (ATCC 43816); assay type: cell-based
Experimental: as §1

[4] = system: Pseudomonas aeruginosa (ATCC27853); assay type: cell-based
Experimental: as §1

[5] = system: methicillin-resistant S. aureus (MRSA) (NCTC12493); assay type: cell-based, Staphylococcus aureus
Experimental: as §1

horse erythrocytes = test: Haemolytic assay; assay type: cell-based; details: 2% (v/v) horse red blood cells, 37 °C, 2 h; 1% Triton-X 100 positive control; three times in five replicates
Experimental: The haemolytic assay was carried out to detect the cytotoxicity of each peptide to erythrocytes obtained from fresh defibrinated horse blood as described before. An appropriate volume of horse blood solution was collected via washing and transferring until the supernatant was clear. Then, 2% (v/v) suspension of red blood cells were incubated with peptide at 37 °C for 2 h. For positive and negative controls, the red blood cells were incubated with 1% (v/v) Triton-X 100 and Phosphate-buffered saline (PBS) solution, respectively. The 10% of maximal haemolysis concentration (HC10, μM) was utilised to assess the haemolytic potential. Experiments were repeated three times in five replicates.

[6] = system: Escherichia coli (NCTC10418); assay type: cell-based
Experimental: as §1

[7] = system: Staphylococcus aureus (NCTC10788); assay type: cell-based
Experimental: as §1

Row | Compound | MBC C. albicans [1] [µM] | MIC C. albicans [1] [µM] | MBC E. faecalis [2] [µM] | MIC E. faecalis [2] [µM] | MBC K. pneumoniae [3] [µM] | MIC K. pneumoniae [3] [µM] | MBC P. aeruginosa [4] [µM] | MIC P. aeruginosa [4] [µM] | MBC MRSA [5] [µM] | MIC MRSA [5] [µM] | HC10 (concentration causing 10% red cell lysis) (horse erythrocytes) [µM] | MBC E. coli [6] [µM] | MIC E. coli [6] [µM] | MBC S. aureus [7] [µM]
1 | CC[C@H](C)[C@@H]1NC(=O)[C@H](C)NC(=O)[C@@H](NC(=O)[C@H](Cc2ccccc2)NC(=O)[C@@H](NC(=O)[C@H](CCCCN)NC(=O)[C@@H]2CCCN2C(=O)[C@H](CC(C)C)NC(=O)[C@H](Cc2ccccc2)NC(=O)[C@@H](N)CCCCN)[C@@H](C)CC)CSSC[C@@H](C(=O)O)NC(=O)[C@H](CCCCN)NC(=O)[C@H](CCCCN)NC(=O)[C@H]([C@@H](C)O)NC1=O [KB2] (H-KFLPKIFCAITKKC-OH; disulfide 8-14) | 512 (≈ 839 µg/mL) | 128 (≈ 210 µg/mL) | > 512 | 512 (≈ 839 µg/mL) | 256 (≈ 419 µg/mL) | 256 (≈ 419 µg/mL) | > 512 | 512 (≈ 839 µg/mL) | 128 (≈ 210 µg/mL) | 16 (≈ 26.2 µg/mL) | 154 |  |  | 
2 | CC[C@H](C)[C@@H]1NC(=O)[C@H](C)NC(=O)[C@@H](NC(=O)[C@H](Cc2ccccc2)NC(=O)[C@@H](NC(=O)[C@H](CCCCN)NC(=O)[C@@H]2CCCN2C(=O)[C@H](CC(C)C)NC(=O)[C@H](Cc2ccccc2)NC(=O)[C@H](CCCCN)NC(=O)[C@@H](N)CCCCN)[C@@H](C)CC)CSSC[C@@H](C(=O)O)NC(=O)[C@H](CCCCN)NC(=O)[C@H](CCCCN)NC(=O)[C@H]([C@@H](C)O)NC1=O [KKB2] (H-KKFLPKIFCAITKKC-OH; disulfide 9-15) | 64 (≈ 113 µg/mL) | 32 (≈ 56.5 µg/mL) | 512 (≈ 904 µg/mL) | 512 (≈ 904 µg/mL) | 256 (≈ 452 µg/mL) | 128 (≈ 226 µg/mL) | > 512 | 256 (≈ 452 µg/mL) | 64 (≈ 113 µg/mL) | 16 (≈ 28.3 µg/mL) | 207 | 32 (≈ 56.5 µg/mL) | 16 (≈ 28.3 µg/mL) | 64 (≈ 113 µg/mL)
3 | CC[C@H](C)[C@@H]1NC(=O)[C@H](C)NC(=O)[C@@H](NC(=O)[C@H](Cc2ccccc2)NC(=O)[C@@H](NC(=O)[C@H](CCCCN)NC(=O)[C@H](Cc2c[nH]c3ccccc23)NC(=O)[C@@H]2CCCN2C(=O)[C@H](CC(C)C)NC(=O)[C@H](Cc2ccccc2)NC(=O)[C@H](CCCCN)NC(=O)[C@@H](N)CCCCN)[C@@H](C)CC)CSSC[C@@H](C(=O)O)NC(=O)[C@H](CCCCN)NC(=O)[C@H](CCCCN)NC(=O)[C@H]([C@@H](C)O)NC1=O [KKWB2] (H-KKFLPWKIFCAITKKC-OH; disulfide 10-16) | 32 (≈ 62.5 µg/mL) | 8 (≈ 15.6 µg/mL) | 512 (≈ 1000 µg/mL) | 256 (≈ 500 µg/mL) | 32 (≈ 62.5 µg/mL) | 32 (≈ 62.5 µg/mL) | 64 (≈ 125 µg/mL) | 64 (≈ 125 µg/mL) | 32 (≈ 62.5 µg/mL) | 8 (≈ 15.6 µg/mL) | 140.04 | 32 (≈ 62.5 µg/mL) | 16 (≈ 31.2 µg/mL) | 16 (≈ 31.2 µg/mL)
4 | CC[C@H](C)[C@@H]1NC(=O)[C@H](C)NC(=O)[C@@H](NC(=O)[C@H](Cc2ccccc2)NC(=O)[C@@H](NC(=O)[C@H](CCCCN)NC(=O)[C@H](Cc2c[nH]c3ccccc23)NC(=O)[C@@H]2CCCN2C(=O)[C@H](CC(C)C)NC(=O)[C@H](Cc2ccccc2)NC(=O)[C@@H](N)CCCCN)[C@@H](C)CC)CSSC[C@@H](C(=O)O)NC(=O)[C@H](CCCCN)NC(=O)[C@H](CCCCN)NC(=O)[C@H]([C@@H](C)O)NC1=O [KWB2] (H-KFLPWKIFCAITKKC-OH; disulfide 9-15) | 64 (≈ 117 µg/mL) | 16 (≈ 29.2 µg/mL) | 512 (≈ 934 µg/mL) | 256 (≈ 467 µg/mL) | 128 (≈ 234 µg/mL) | 64 (≈ 117 µg/mL) | 256 (≈ 467 µg/mL) | 128 (≈ 234 µg/mL) | 64 (≈ 117 µg/mL) | 8 (≈ 14.6 µg/mL) | 99.81 | 32 (≈ 58.4 µg/mL) | 16 (≈ 29.2 µg/mL) | 32 (≈ 58.4 µg/mL)
